{"source": "patent US4889634A", "about": "“Dialysate solution containing hydroxypropyl-beta-cyclodextrin and method of using same” (priority 1988, dated 1989)", "key": {"normal rats": {"test_system": "normal rats", "assay": "relative nephrotoxicity of HPBCD and BCD, intraperitoneal", "format": "in vivo, rat", "conditions": "for Mortality (died/total): BCD 0.75% w/v, HPBCD 1.5 and 3% w/v, 15 ml/100 g i.p.", "experimental": "A first study was conducted to determine the relative nephrotoxicity of HPBCD and BCD. A control group using phosphate buffer solution was also included in the study.\nThree groups of normal rats were utilized in this study. […] Group I rats were given the vehicle solution of phosphate buffer saline (PBS). Group II rats were subdivided into three sub-groups. The first sub-group received a solution having a concentration of 1.5% HPBCD, the second sub-group received a solution having a concentration of 3% HPBCD while the third sub-group received a solution having a concentration of 6% HPBCD. Group III rats were given a solution having a concentration of 0.75% BCD.\nAnimals from each group were sacrificed at 24 and 72 hours after injection of the peritoneal solution. The animals were sacrificed under general anesthesia and exsanguinated from the abdominal aorta. Plasma was separated and blood urea nitrogen and creatinine was measured and used as an index of renal toxicity of the solutions."}, "[1]": {"test_system": "rats [Crl:CD(SD) BR strain]", "assay": "14-day intravenous toxicity study in rats", "format": "in vivo, rat", "experimental": "As part of the toxicological evaluation of HPBCD, control groups of animals were dosed with HPBCD alone.\nTwo groups (5/sex/group) of rats [Crl:CD(SD) BR strain] were used for this study. Control rats were given 200 mg of salt per kilogram of body weight intravenously administered in a saline control solution comprising 20% salt by weight in water. The saline control was administered every second day for 14 days (i.e. seven injections). The treated rats were given 200 mg of HPBCD per kilogram of body weight intravenously administered (200 mg/kg i.v. HPBCD) via a HPBCD solution containing 20% HPBCD by weight in water on the same injection schedule. […] At the end of the study the animals were necropsied, gross pathology was observed, histopathological samples were prepared and blood was drawn for clinical laboratory measurements."}, "[2]": {"conditions": "1 day, BCD 0.75%, HPBCD 1.5 and 3%"}, "[3]": {"conditions": "3 day, BCD 0.75%, HPBCD 1.5 and 3%"}, "[4]": {"conditions": "female rats, 200 mg/kg i.v., 14 days"}, "[5]": {"conditions": "male rats, 200 mg/kg i.v., 14 days"}}}
{"substance": "hydroxypropyl-beta-cyclodextrin [HPBCD]", "values": [{"measurement": "Mortality (died/total)", "setting": "normal rats; 1 day", "value": "0/6"}, {"measurement": "Kidney size", "setting": "normal rats; [2]", "value": "normal"}, {"measurement": "Kidney weight", "setting": "normal rats; [2]", "value": "normal"}, {"measurement": "BUN", "setting": "normal rats; 1 day, BCD 0.75%, HPBCD 1.5 and 3%, Table III", "value": 14.8, "unit": "mg/dL"}, {"measurement": "Mortality (died/total)", "setting": "normal rats; 3 day", "value": "0/6"}, {"measurement": "Kidney size", "setting": "normal rats; [3]", "value": "normal"}, {"measurement": "Kidney weight", "setting": "normal rats; [3]", "value": "normal"}, {"measurement": "BUN", "setting": "normal rats; 3 day, HPBCD 1.5 and 3%, Table III", "value": 19.8, "unit": "mg/dL"}, {"measurement": "BUN", "setting": "normal rats; HPBCD 1.5%, 1d, n = 6", "value": 14.8, "unit": "mg/dL"}, {"measurement": "Final body weight Wt (f)", "setting": "normal rats; HPBCD 1.5%, 1d, n = 6", "value": 210, "unit": "g"}, {"measurement": "Initial body weight Wt (i)", "setting": "normal rats; HPBCD 1.5%, 1d, n = 6", "value": 213, "unit": "g"}, {"measurement": "Left kidney weight (Lt kd)", "setting": "normal rats; HPBCD 1.5%, 1d, n = 6", "value": 867, "unit": "mg"}, {"measurement": "Left kidney/body weight (Lt kd/wt)", "setting": "normal rats; HPBCD 1.5%, 1d, n = 6", "value": 4.11, "unit": "mg/g"}, {"measurement": "Mortality", "setting": "normal rats; HPBCD 1.5%, 1d, n = 6", "value": 0, "unit": "%"}, {"measurement": "Right kidney weight (Rt kd)", "setting": "normal rats; HPBCD 1.5%, 1d, n = 6", "value": 860, "unit": "mg"}, {"measurement": "Right kidney/body weight (Rt kd/wt)", "setting": "normal rats; HPBCD 1.5%, 1d, n = 6", "value": 4.08, "unit": "mg/g"}, {"measurement": "BUN", "setting": "normal rats; HPBCD 1.5%, 3d, n = 6", "value": 19.8, "unit": "mg/dL"}, {"measurement": "Final body weight Wt (f)", "setting": "normal rats; HPBCD 1.5%, 3d, n = 6", "value": 280, "unit": "g"}, {"measurement": "Initial body weight Wt (i)", "setting": "normal rats; HPBCD 1.5%, 3d, n = 6", "value": 296, "unit": "g"}, {"measurement": "Left kidney weight (Lt kd)", "setting": "normal rats; HPBCD 1.5%, 3d, n = 6", "value": 1027, "unit": "mg"}, {"measurement": "Left kidney/body weight (Lt kd/wt)", "setting": "normal rats; HPBCD 1.5%, 3d, n = 6", "value": 3.68, "unit": "mg/g"}, {"measurement": "Mortality", "setting": "normal rats; HPBCD 1.5%, 3d, n = 6", "value": 0, "unit": "%"}, {"measurement": "Right kidney weight (Rt kd)", "setting": "normal rats; HPBCD 1.5%, 3d, n = 6", "value": 1009, "unit": "mg"}, {"measurement": "Right kidney/body weight (Rt kd/wt)", "setting": "normal rats; HPBCD 1.5%, 3d, n = 6", "value": 3.61, "unit": "mg/g"}, {"measurement": "BUN", "setting": "normal rats; HPBCD 3%, 1d, n = 6", "value": 15.7, "unit": "mg/dL"}, {"measurement": "Final body weight Wt (f)", "setting": "normal rats; HPBCD 3%, 1d, n = 6", "value": 301, "unit": "g"}, {"measurement": "Initial body weight Wt (i)", "setting": "normal rats; HPBCD 3%, 1d, n = 6", "value": 322, "unit": "g"}, {"measurement": "Left kidney weight (Lt kd)", "setting": "normal rats; HPBCD 3%, 1d, n = 6", "value": 1034, "unit": "mg"}, {"measurement": "Left kidney/body weight (Lt kd/wt)", "setting": "normal rats; HPBCD 3%, 1d, n = 6", "value": 3.43, "unit": "mg/g"}, {"measurement": "Mortality", "setting": "normal rats; HPBCD 3%, 1d, n = 6", "value": 0, "unit": "%"}, {"measurement": "Right kidney weight (Rt kd)", "setting": "normal rats; HPBCD 3%, 1d, n = 6", "value": 1054, "unit": "mg"}, {"measurement": "Right kidney/body weight (Rt kd/wt)", "setting": "normal rats; HPBCD 3%, 1d, n = 6", "value": 3.49, "unit": "mg/g"}, {"measurement": "BUN", "setting": "normal rats; HPBCD 3%, 3d, n = 6", "value": 19.9, "unit": "mg/dL"}, {"measurement": "Final body weight Wt (f)", "setting": "normal rats; HPBCD 3%, 3d, n = 6", "value": 267, "unit": "g"}, {"measurement": "Initial body weight Wt (i)", "setting": "normal rats; HPBCD 3%, 3d, n = 6", "value": 275, "unit": "g"}, {"measurement": "Left kidney weight (Lt kd)", "setting": "normal rats; HPBCD 3%, 3d, n = 6", "value": 995, "unit": "mg"}, {"measurement": "Left kidney/body weight (Lt kd/wt)", "setting": "normal rats; HPBCD 3%, 3d, n = 6", "value": 3.72, "unit": "mg/g"}, {"measurement": "Mortality", "setting": "normal rats; HPBCD 3%, 3d, n = 6", "value": 0, "unit": "%"}, {"measurement": "Right kidney weight (Rt kd)", "setting": "normal rats; HPBCD 3%, 3d, n = 6", "value": 1009, "unit": "mg"}, {"measurement": "Right kidney/body weight (Rt kd/wt)", "setting": "normal rats; HPBCD 3%, 3d, n = 6", "value": 3.78, "unit": "mg/g"}, {"measurement": "BUN", "setting": "normal rats; HPBCD 6%, 1d, n = 6", "value": 14.5, "unit": "mg/dL"}, {"measurement": "Final body weight Wt (f)", "setting": "normal rats; HPBCD 6%, 1d, n = 6", "value": 227, "unit": "g"}, {"measurement": "Initial body weight Wt (i)", "setting": "normal rats; HPBCD 6%, 1d, n = 6", "value": 240, "unit": "g"}, {"measurement": "Left kidney weight (Lt kd)", "setting": "normal rats; HPBCD 6%, 1d, n = 6", "value": 1076, "unit": "mg"}, {"measurement": "Left kidney/body weight (Lt kd/wt)", "setting": "normal rats; HPBCD 6%, 1d, n = 6", "value": 4.73, "unit": "mg/g"}, {"measurement": "Mortality", "setting": "normal rats; HPBCD 6%, 1d, n = 6", "value": 0, "unit": "%"}, {"measurement": "Right kidney weight (Rt kd)", "setting": "normal rats; HPBCD 6%, 1d, n = 6", "value": 1066, "unit": "mg"}, {"measurement": "Right kidney/body weight (Rt kd/wt)", "setting": "normal rats; HPBCD 6%, 1d, n = 6", "value": 4.70, "unit": "mg/g"}, {"measurement": "Rats died", "setting": "normal rats; HPBCD Groups, 1 and 3 day, in words", "value": "None of the rats"}, {"measurement": "Albumin/Globulin (Ratio)", "setting": "[1]; [4]", "value": "0.9 ± 0.06"}, {"measurement": "Triglycerides", "setting": "[1]; [4]", "value": "35.0 ± 12.00", "unit": "mg/dL"}, {"measurement": "White blood cells", "setting": "[1]; [4]", "value": "7.4 ± 2.56 × 10^3 /mm^3"}, {"measurement": "Number of observations (antemortem)", "setting": "[1]; female, 200 mg/kg i.v.", "value": "0/5"}, {"measurement": "Number of deaths", "setting": "[1]; female, 200 mg/kg i.v. every second day, 14 days", "value": "0/5"}, {"measurement": "Body weight gain", "setting": "[1]; female, week 1, 200 mg/kg i.v.", "value": "16.0 ± 5.00", "unit": "Grams"}, {"measurement": "Food intake", "setting": "[1]; female, week 1, 200 mg/kg i.v.", "value": "107.9 ± 10.59", "unit": "Grams"}, {"measurement": "Body weight gain", "setting": "[1]; female, week 2, 200 mg/kg i.v.", "value": "18.0 ± 4.21", "unit": "Grams"}, {"measurement": "Food intake", "setting": "[1]; female, week 2, 200 mg/kg i.v.", "value": "112.1 ± 12.47", "unit": "Grams"}, {"measurement": "Adrenals weight to total body weight ratio", "setting": "[1]; females", "value": "0.0328 Weight Percent of Total Body W"}, {"measurement": "Kidney weight to total body weight ratio", "setting": "[1]; females", "value": "0.9937 Weight Percent of Total Body W"}, {"measurement": "Body weight gains vs saline control", "setting": "[1]; in words", "value": "No difference"}, {"measurement": "Food intake vs saline control", "setting": "[1]; in words", "value": "No difference"}, {"measurement": "Gross pathology", "setting": "[1]; in words", "value": "No changes in gross pathology attributable to HPBCD treatment were observed"}, {"measurement": "Abumin/Globulin (Ratio)", "setting": "[1]; [5]", "value": "0.9 ± 0.08"}, {"measurement": "Alanine amino transferase", "setting": "[1]; [5]", "value": "24.0 ± 6.70", "unit": "IU/L"}, {"measurement": "Albumin", "setting": "[1]; [5]", "value": "3.0 ± 0.08", "unit": "G/dL"}, {"measurement": "Alkaline phosphatase", "setting": "[1]; [5]", "value": "137.0 ± 26.20", "unit": "IU/L"}, {"measurement": "Aspartate amino transferase", "setting": "[1]; [5]", "value": "124.0 ± 37.36", "unit": "IU/L"}, {"measurement": "Basophils", "setting": "[1]; [5]", "value": "0.00 ± 0.00 × 10^3 /mm^3"}, {"measurement": "Blood urea nitrogen", "setting": "[1]; [5]", "value": "11.2 ± 0.87", "unit": "mg/dL"}]}
